Laboratory results taken from US6916773B2, “Non-surfactant solubilizing agent” (Ecolab, Inc., priority 2002, dated 2005).

Columns and labels:
Assay type in all cases: physicochemical
Conditions in all cases: room temperature
[1] = Sodium benzoate added to aqueous solvent solution until single phase observed (PPh)
Method: (§1) Aqueous solutions of dipropylene glycol n-butyl ether(DPnB), propylene glycol phenyl ether(PPh), and benzyl alcohol were prepared and sodium benzoate was added at room temperature to each solution until a single phase solution was observed.

[2] = Sodium benzoate added to aqueous solvent solution until single phase observed (DPnB)
Method: as §1

[3] = Sodium benzoate added to aqueous solvent solution until single phase observed (benzyl alcohol)
Method: as §1

For `O=C([O-])c1ccccc1.[Na+]` [Na Benzoate, sodium benzoate], the “Na Benzoate at which a single phase solution was observed” value (“Na Benzoate” below) ([1]; Water 43 wt %, PPh 43 wt %) was 14 wt %, the “Na Benzoate” value ([1]; Water 58 wt %, PPh 25 wt %) was 17 wt % and the “Na Benzoate” value ([1]; Water 63 wt %, PPh 16 wt %) was 21 wt %. For the same compound, the “Na Benzoate” value ([1]; Water 69 wt %, PPh 12 wt %) was 19 wt %, the “Na Benzoate” value ([1]; Water 74 wt %, PPh 8 wt %) was 18 wt % and the “Na Benzoate” value ([1]; Water 79 wt %, PPh 4 wt %) was 17 wt %. The “Na Benzoate” value ([1]; Water 83 wt %, PPh 2 wt %) was 15 wt %, the “Na Benzoate” value ([1]; Water 93 wt %, PPh 1 wt %) was 6 wt % and the “Na Benzoate” value ([2]; Water 45 wt %, DPnB 45 wt %) was 10 wt %. The “Na Benzoate” value ([2]; Water 62 wt %, DPnB 26 wt %) was 12 wt %, the “Na Benzoate” value ([2]; Water 70 wt %, DPnB 18 wt %) was 12 wt % and the “Na Benzoate” value ([2]; Water 75 wt %, DPnB 13 wt %) was 12 wt %. For the same compound, the “Na Benzoate” value ([2]; Water 79 wt %, DPnB 9 wt %) was 12 wt %, the “Na Benzoate” value ([2]; Water 86 wt %, DPnB 4 wt %) was 10 wt % and the “Na Benzoate” value ([2]; Water 98 wt %, DPnB 2 wt %) was 0 wt %. For the same compound, the “Na Benzoate” value ([2]; Water 99 wt %, DPnB 1 wt %) was 0 wt %, the “Na Benzoate” value ([3]; Water 44 wt %, Benzyl Alcohol 44 wt %) was 12 wt % and the “Na Benzoate” value ([3]; Water 61 wt %, Benzyl Alcohol 26 wt %) was 13 wt %. The “Na Benzoate” value ([3]; Water 69 wt %, Benzyl Alcohol 17 wt %) was 14 wt %, the “Na Benzoate” value ([3]; Water 74 wt %, Benzyl Alcohol 13 wt %) was 13 wt % and the “Na Benzoate” value ([3]; Water 78 wt %, Benzyl Alcohol 9 wt %) was 13 wt %. For the same compound, the “Na Benzoate” value ([3]; Water 85 wt %, Benzyl Alcohol 4 wt %) was 11 wt %, the “Na Benzoate” value ([3]; Water 98 wt %, Benzyl Alcohol 2 wt %) was 0 wt % and the “Na Benzoate” value ([3]; Water 99 wt %, Benzyl Alcohol 1 wt %) was 0 wt %.
